Experimental data from ChEMBL document CHEMBL3994622, “Design and synthesis of new RAF kinase-inhibiting antiproliferative quinoline derivatives. Part 2: Diarylurea derivatives” (Eur J Med Chem, 2017).

How the values were obtained:
[1] = test system: NCI-H322M; assay: Growth inhibition of human NCI-H322M cells incubated for 48 hrs by sulforhodamine B assay; format: functional
[2] = test system: KM12; assay: Growth inhibition of human KM12 cells incubated for 48 hrs by sulforhodamine B assay; format: functional; details: KM12, 48 h
[3] = test system: NCI-H23; assay: Growth inhibition of human NCI-H23 cells incubated for 48 hrs by sulforhodamine B assay; format: functional; details: NCI-H23, 48 h
[4] = test system: A498; assay: Growth inhibition of human A498 cells incubated for 48 hrs by sulforhodamine B assay; format: functional; details: A498, 48 h
[5] = test system: HT-29; assay: Growth inhibition of human HT-29 cells incubated for 48 hrs by sulforhodamine B assay; format: functional; details: HT-29, 48 h
[6] = test system: BT-549; assay: Growth inhibition of human BT549 cells incubated for 48 hrs by sulforhodamine B assay; format: functional; details: BT-549, 48 h
[7] = test system: 786-0; assay: Growth inhibition of human 786-0 cells incubated for 48 hrs by sulforhodamine B assay; format: functional; details: 786-0, 48 h
[8] = test system: SF-539; assay: Growth inhibition of human SF539 cells incubated for 48 hrs by sulforhodamine B assay; format: functional; details: SF-539, 48 h
[9] = test system: NCI-H522; assay: Growth inhibition of human NCI-H522 cells incubated for 48 hrs by sulforhodamine B assay; format: functional; details: NCI-H522, 48 h
[10] = test system: SN12C; assay: Growth inhibition of human SN12C cells incubated for 48 hrs by sulforhodamine B assay; format: functional
[11] = test system: SNB-75; assay: Growth inhibition of human SNB75 cells incubated for 48 hrs by sulforhodamine B assay; format: functional; details: SNB-75, 48 h
[12] = test system: K562; assay: Growth inhibition of human K562 cells incubated for 48 hrs by sulforhodamine B assay; format: functional; details: K562, 48 h
[13] = test system: LOX IMVI; assay: Growth inhibition of human LOXIMVI cells incubated for 48 hrs by sulforhodamine B assay; format: functional
[14] = test system: HCC 2998; assay: Growth inhibition of human HCC2998 cells incubated for 48 hrs by sulforhodamine B assay; format: functional; details: HCC 2998, 48 h
[15] = test system: OVCAR-8; assay: Growth inhibition of human OVCAR8 cells incubated for 48 hrs by sulforhodamine B assay; format: functional; details: OVCAR-8, 48 h
[16] = test system: SK-MEL-2; assay: Growth inhibition of human SK-MEL-2 cells incubated for 48 hrs by sulforhodamine B assay; format: functional; details: SK-MEL-2, 48 h
[17] = test system: UACC-62; assay: Growth inhibition of human UACC62 cells incubated for 48 hrs by sulforhodamine B assay; format: functional; details: UACC-62, 48 h
[18] = test system: SW-620; assay: Growth inhibition of human SW620 cells incubated for 48 hrs by sulforhodamine B assay; format: functional; details: SW-620, 48 h
[19] = test system: UO-31; assay: Growth inhibition of human UO31 cells incubated for 48 hrs by sulforhodamine B assay; format: functional; details: UO-31, 48 h
[20] = test system: ACHN; assay: Growth inhibition of human ACHN cells incubated for 48 hrs by sulforhodamine B assay; format: functional
[21] = test system: EKVX; assay: Growth inhibition of human EKVX cells incubated for 48 hrs by sulforhodamine B assay; format: functional
[22] = test system: PC-3; assay: Growth inhibition of human PC3 cells incubated for 48 hrs by sulforhodamine B assay; format: functional; details: PC-3, 48 h
[23] = test system: OVCAR-4; assay: Growth inhibition of human OVCAR4 cells incubated for 48 hrs by sulforhodamine B assay; format: functional; details: OVCAR-4, 48 h
[24] = test system: RXF 393; assay: Growth inhibition of human RXF393 cells incubated for 48 hrs by sulforhodamine B assay; format: functional; details: RXF 393, 48 h
[25] = test system: IGROV-1; assay: Growth inhibition of human IGROV1 cells incubated for 48 hrs by sulforhodamine B assay; format: functional; details: IGROV-1, 48 h
[26] = molecular target: RAF proto-oncogene serine/threonine-protein kinase (Homo sapiens, UniProt P04049); assay: Inhibition of human c-RAF at 10 uM using MEK1 as substrate in presence of [33P]ATP by Hotspot assay relative to control
Sequence of RAF proto-oncogene serine/threonine-protein kinase (P04049 whole entry): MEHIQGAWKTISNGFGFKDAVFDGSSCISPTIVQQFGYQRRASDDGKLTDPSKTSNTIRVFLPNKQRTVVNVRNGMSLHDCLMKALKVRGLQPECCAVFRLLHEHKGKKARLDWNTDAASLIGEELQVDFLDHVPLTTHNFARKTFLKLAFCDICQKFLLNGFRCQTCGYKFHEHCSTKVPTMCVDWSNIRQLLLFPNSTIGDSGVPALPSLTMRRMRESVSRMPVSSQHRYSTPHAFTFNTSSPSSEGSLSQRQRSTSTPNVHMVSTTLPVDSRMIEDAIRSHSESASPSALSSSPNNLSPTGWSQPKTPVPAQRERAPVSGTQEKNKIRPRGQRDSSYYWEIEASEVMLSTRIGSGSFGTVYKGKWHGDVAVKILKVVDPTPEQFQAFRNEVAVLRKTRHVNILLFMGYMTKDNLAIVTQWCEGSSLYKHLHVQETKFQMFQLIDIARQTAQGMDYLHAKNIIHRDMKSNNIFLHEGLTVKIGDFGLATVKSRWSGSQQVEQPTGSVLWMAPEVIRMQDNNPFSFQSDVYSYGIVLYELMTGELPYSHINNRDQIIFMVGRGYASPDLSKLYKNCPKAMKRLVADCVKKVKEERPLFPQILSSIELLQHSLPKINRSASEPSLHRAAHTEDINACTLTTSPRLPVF

[27] = test system: MOLT-4; assay: Growth inhibition of human MOLT4 cells incubated for 48 hrs by sulforhodamine B assay; format: functional; details: MOLT-4, 48 h
[28] = test system: TK-10; assay: Growth inhibition of human TK10 cells incubated for 48 hrs by sulforhodamine B assay; format: functional; details: TK-10, 48 h
[29] = test system: NCI-H226; assay: Growth inhibition of human NCI-H226 cells incubated for 48 hrs by sulforhodamine B assay; format: functional; details: NCI-H226, 48 h
[30] = test system: NCI-H460; assay: Growth inhibition of human NCI-H460 cells incubated for 48 hrs by sulforhodamine B assay; format: functional; details: NCI-H460, 48 h
[31] = test system: MDA-MB-435; assay: Growth inhibition of human MDA-MB-435 cells incubated for 48 hrs by sulforhodamine B assay; format: functional; details: MDA-MB-435, 48 h
[32] = test system: HCT-15; assay: Growth inhibition of human HCT15 cells incubated for 48 hrs by sulforhodamine B assay; format: functional; details: HCT-15, 48 h
[33] = read-out: LC50 (the source's name)

COc1cc2cc(Oc3ccc(NC(=O)Nc4ccc(Cl)c(C(F)(F)F)c4)cc3)c(C)nc2cc1OC
GI50 [1]: 2.05 µM | TGI [1]: 6.28 µM | CC50 [1, 33]: 16.3 µM | GI50 [2]: 1.07 µM | TGI [2]: 3.85 µM | CC50 [2, 33]: 13.8 µM | GI50 [3]: 0.991 µM | TGI [3]: 3.79 µM | CC50 [3, 33]: 15.8 µM | GI50 [4]: 0.754 µM | TGI [4]: 3.32 µM | CC50 [4, 33]: 10.7 µM | GI50 [5]: 1.2 µM | TGI [5]: 3.98 µM | CC50 [5, 33]: 14.2 µM | GI50 [6]: 0.981 µM | TGI [6]: 4.59 µM | CC50 [6, 33]: 20.5 µM | GI50 [7]: 1.17 µM | TGI [7]: 4.97 µM | CC50 [7, 33]: 18.8 µM | GI50 [8]: 1.96 µM | TGI [8]: 8.39 µM | CC50 [8, 33]: > 32.5 µM | GI50 [9]: 0.773 µM | TGI [9]: 2.65 µM | CC50 [9, 33]: 12.2 µM | GI50 [10]: 1.31 µM | TGI [10]: 6.12 µM | CC50 [10, 33]: 26.8 µM | GI50 [11]: 1.03 µM | TGI [11]: 4.9 µM | CC50 [11, 33]: > 32.5 µM | GI50 [12]: 1.11 µM | LC50 (concentration killing 50% of cells) [12]: 23.6 µM | TGI [12]: 4.81 µM | GI50 [13]: 1.22 µM | TGI [13]: 4.16 µM | CC50 [13, 33]: 11.6 µM | GI50 [14]: 1.77 µM | TGI [14]: 5.48 µM | CC50 [14, 33]: 13.6 µM | GI50 [15]: 1.04 µM | TGI [15]: 4.55 µM | CC50 [15, 33]: > 32.5 µM | GI50 [16]: 0.799 to 0.8 µM | TGI [16]: 1.94 µM | CC50 [16, 33]: 11 µM | GI50 [17]: 1.24 µM | TGI [17]: 6.01 µM | CC50 [17, 33]: 18.4 µM | GI50 [18]: 1.25 µM | LC50 [18]: 14 µM | TGI [18]: 4.57 µM | GI50 [19]: 0.924 µM | TGI [19]: 2.38 µM | CC50 [19, 33]: 13.4 µM | GI50 [20]: 1.07 µM | TGI [20]: 4 µM | CC50 [20, 33]: 13.7 µM | GI50 [21]: 1.01 µM | LC50 (concentration killing 50% of cells) [21]: 17.6 µM | TGI [21]: 3.75 µM | GI50 [22]: 0.781 µM | TGI [22]: 2.96 µM | CC50 [22, 33]: > 32.5 µM | GI50 [23]: 1.37 µM | TGI [23]: 6.1 µM | CC50 [23, 33]: 23.5 µM | GI50 [24]: 1.33 µM | TGI [24]: 4.21 µM | CC50 [24, 33]: 15 µM | GI50 [25]: 2.34 µM | TGI [25]: 9.83 µM | CC50 [25, 33]: > 32.5 µM | inhibition [26]: 99.7% | GI50 [27]: 1.14 µM | LC50 [27]: > 32.5 µM | TGI [27]: 5.49 µM | GI50 [28]: 1.32 µM | TGI [28]: 6.19 µM | CC50 [28, 33]: > 32.5 µM | GI50 [29]: 1.27 µM | TGI [29]: 5.01 µM | CC50 [29, 33]: > 32.5 µM | GI50 [30]: 1.07 µM | TGI [30]: 3.57 µM | CC50 [30, 33]: 21.1 µM | GI50 [31]: 1.03 µM | TGI [31]: 4.71 µM | CC50 [31, 33]: > 32.5 µM | GI50 [32]: 1.15 µM | LC50 (lethal concentration, 50% net cell kill) [32]: 16.9 µM | TGI [32]: 4.86 µM
